From patent US12655101B2, “Small molecules with antibacterial activity” (NEW MEXICO TECH UNIVERSITY RESEARCH PARK CORPORATION, priority 2021, dated 2026)

Experiments:
Format in all cases: cell-based
[1] = tested on: A. baumannii ATCC BAA-1797 in a culture of HeLa cells; assay: Selective killing of A. baumannii in a culture of HeLa cells; conditions: 60 μM Compound 26
Description: In a separate experiment, the ability of […] to selectively kill A. baumannii ATCC BAA-1797 in a culture of HeLa cells in 40% FBS was studied. Cells were trypsinized, counted (cells/mL) using a hemocytometer, and plated (2×10^5 HeLa cells/100 μL) in tissue culture-treated 24-well plate in DMEM+1% penicillin/streptomycin (P/S)+10% FBS. Cells were adhered overnight at 37° C. in a humidified incubator with 5% CO2. Media was replaced the following day with DMEM+40% or 50% FBS. Selected wells were treated with 60 μM Compound 26, which included HeLa only and HeLa plus 10,000 A. baumannii ATCC BAA-1797—that had been previously grown in MHB for 12 hours in 37° C.—in the appropriate wells. Cells were incubated further for 18 hours at 37° C. 20% v/v MTT reagent (5 mg/mL stock) was added, and the samples were incubated for 10 minutes to observe viable bacteria. Plates were counted after a visual viability assessment.
Cells were trypsinized, counted (cells/mL) using a hemocytometer, and plated (2×10^5 HeLa cells/100 μL) in tissue culture-treated 24-well plate in DMEM+1% penicillin/streptomycin (P/S)+10% FBS. Cells were adhered overnight at 37° C. in a humidified incubator with 5% CO2. Media was replaced the following day with DMEM+40% or 50% FBS. […] Plates were counted after visual viability assessment.

red blood cells = assay: Red blood cell lysis capacity
Description: Diluted red blood cells were aliquoted into clear tissue culture media−/+addition of 40% human serum and added either 2 μL or 40 μL of cell lysis buffer (LB), 50 μM, 40 μM, 20 μM, 15 μM, 10 μM, or 5 μM Compound 14. The samples were agitated by vortex and spun by centrifuge.

[2] = tested on: A. baumannii ATCC BAA-1797; assay: Synergy of gentamicin and Compound 25, colony counts; conditions: 18 hours
Description: Cells were cultured using methods described above. 500 μL of the adjusted bacterial cell suspensions were placed into borosilicate glass tubes, where the cell suspensions were treated with 100 μg/mL gentamicin, 2 μM Compound 25, or a combination of 100 μg/mL gentamicin plus 2 μM Compound 25. The culture tubes were incubated for 18 hours at 37° C. Colony counts were performed by 10-fold serially diluting the samples into fresh MHB and drip-streaking 10 μL from each dilution series onto MHA. The plates were incubated at 37° C. for 18 hours before the CFU/mL were determined by visual cell counts.
500 μL aliquots of the adjusted bacterial cell suspensions were placed into borosilicate glass tubes, where the cell suspensions were treated with 50 μg/mL gentamicin, 2 μM Compound 25, or a combination of 50 μg/mL gentamicin plus 2 μM Compound 25. The culture tubes were incubated for 18 hours at 37° C.

E. coli = assay: Filamentation with ciprofloxacin and Compound 25 on E. coli; conditions: for cell morphology and growth: 16 hours
Description: E. coli: E. coli was grown from a glycerol stock by placing a small volume of cells onto a MHA plate. The MHA plate was incubated overnight at 37° C. A single colony was subsequently used to inoculate MHB to obtain a bacterial broth suspension. The MHB broth suspension was grown at 37° C. on a rotary shaking incubator (100 rpm) for 12 hours. The bacterial cell concentration was adjusted to ˜1×10^7 CFU/mL in MHB using OD at 595 nm. […] The culture tubes were incubated for 16 hours at 37° C. After 16 hours incubation, took 3 μL of cells from each well and plated on microscope slide to observe the following: […]

A. baumannii ATCC 15151 = assay: Synergy of kanamycin and Compound 25, colony counts
Description: Bacterial cells were prepared using methods described above. 500 μL aliquots of the adjusted bacterial cell suspensions were placed into borosilicate glass tubes, where the cell suspensions were treated with 12.5 μg/mL kanamycin, 1 μM or 2 μM Compound 25, or a combination of 12.5 μg/mL kanamycin plus 1 μM or 2 μM Compound 25. The culture tubes were incubated for 18 hours at 37° C. Colony counts were performed by 10-fold serially diluting the samples into fresh MHB and drip-streaking 10 μL from each dilution series onto MHA. The plates were incubated at 37° C. for 18 hours before the CFU/mL were determined by visual cell counts.
A. baumannii ATCC 15151 was grown from a glycerol stock by placing a small volume of cells onto a MHA plate. The MHA plate was incubated overnight at 37° C. A single colony was subsequently used to inoculate MHB to obtain a bacterial broth suspension. The MHB broth suspension was grown at 37° C. on a rotary shaking incubator (100 rpm) for 12 hours. The bacterial cell concentration was adjusted to ˜5×10^5 CFU/mL in MHB or MHB+40% FBS using OD at 595 nm. 500 μL aliquots of the adjusted bacterial cell suspensions were placed into borosilicate glass tubes. Cell suspensions were treated with 6 μg/mL or 12.5 μg/mL kanamycin, 1 μM, 2 μM, or 10 μM Compound 25, or a combination of 6 μg/mL or 12.5 μg/mL […] plus 1 μM, 2 μM, or 10 μM Compound 25. The culture tubes were incubated for 18 hours at 37° C. Colony counts were determined by 10-fold serially diluting the samples into fresh MHB and drip-streaking 10 μL from each dilution series onto MHA. The plates were incubated at 37° C. for 18 hours before the CFU/mL were determined by visual cell counts.

[3] = 20 μM Compound 25+25 ng/mL ciprofloxacin

Cl.Clc1ccc(N/N=C/c2c[nH]c3cccc(OCc4ccccc4)c23)cc1 [Compound 26, (E)-2-((4-(benzyloxy)-1H-indol-3-yl)methylene)-1-(4-chlorophenyl)hydrazin-1-ium]
kill of A. baumannii ATCC BAA-1797 in HeLa co-culture ([1]; 40% FBS and 50% FBS): 4 logs | selective eradication of A. baumannii from HeLa cells ([1]; 18 hours, 40% or 50% FBS): selectively eradicated A. baumannii ATCC BAA-1797 from HeLa cells, leaving HeLa cells unharmed

Nc1cccc2[nH]cc(/C=N/Nc3ccc(Cl)cc3)c12 [Compound 14, (E)-3-((2-(4-chlorophenyl)hydrazineylidene)methyl)-1H-indol-4-amine]
red blood cell lysis (red blood cells; 40% additional human serum, 50 μM Compound 14): did not lyse cells | red blood cell lysis (red blood cells; no additional serum, 40 μM Compound 14): lysed some red blood cells

Brc1ccc(N/N=C/c2c[nH]c3cccc(OCc4ccccc4)c23)cc1.Cl [Compound 25, (E)-2-((4-(benzyloxy)-1H-indol-3-yl)methylene)-1-(4-bromophenyl)hydrazin-1-ium chloride]
synergy, full cell death ([2]; 50 μg/mL gentamicin+2 μM Compound 25): 4 orders of magnitude | synergy, full cell death ([2]; 100 μg/mL gentamicin+2 μM Compound 25): 8 orders of magnitude | inhibition of ciprofloxacin-induced filamentation (E. coli; [3]): only slightly inhibited | cell morphology and growth (E. coli; [3]): elongated in morphology and growth inhibition was observed | cell morphology and growth (E. coli; single agent: 25 ng/mL ciprofloxacin or 20 μM Compound 25): morphologically normal and growth inhibition was observed | synergy, logs of kill (A. baumannii ATCC 15151; 12.5 μg/mL kanamycin+1 μM Compound 25, 18 hours): 2.5 logs of kill | synergy, full cell death (A. baumannii ATCC 15151; 12.5 μg/mL kanamycin+2 μM Compound 25, 18 hours): 9 orders of magnitude | synergy, logs of kill (A. baumannii ATCC 15151; 40% FBS, 12.5 μg/mL kanamycin+10 μM Compound 25): 9 logs of kill | synergy, logs of kill (A. baumannii ATCC 15151; without serum, 6 μg/mL kanamycin+2 μM Compound 25): 8 logs of kill
